Data reported in US20150093351A1, “MALODOR CONTROL COMPOSITIONS HAVING ACTIVATED ALKENES AND METHODS THEREOF” (The Procter & Gamble Company, priority 2012, published 2015).
Counter-ions that a name gives are not always drawn.

Key:
[1] = Headspace SPME GC/MS malodor removal by aqueous Composition 3 (butylamine); conditions: 0.5 wt. % activated alkene in Composition 3, pH 7, no catalyst; 2 hours room temperature, 30 minutes 35° C.; numbers less than 1 = reduced malodor
Experimental: (§1) All activated alkenes are present in Composition 3 in an amount of 0.5 wt. %, except PEG 400 Dimethylacrylate which is present in Composition 3 in amount of 1.0 wt. %.
(§2) In addition, a Control composition is prepared according to the composition in Table 3, except the activated alkene is omitted. Composition 3 with each activated alkene and the Control composition are then tested for malodor removal performance as described below.
(§3) n-Butanethiol and di-n-propoyl sulfide were chosen as chemical surrogates for sulfur-containing odors such as onion, garlic, sewage, etc. n-Butylamine was used as a representative for amine-containing odors such as fish, pet urine, etc.
(§4) 5 ml of Composition 3 and the Control composition are placed into a separate GC-MS vial and each spiked with 5 microliters of butanthiol or butylamine. The compositions are first equilibrated at room temperature for 2 hours, then incubated at 35° C. for 30 minutes. The headspace of each vial is finally sampled using a polydimethyl siloxane (“PDMS”)/SPME fiber and analyzed by GC/MS. The head space concentrations of odor molecules are measured and the data are normalized to the Control composition.
(§5) Numbers less than 1 denote reduced levels of malodor molecules present in the headspace of Composition 3 relative to the Control composition. The reduced malodor level is attributed to high malodor control efficacy of Composition 3.

[2] = Headspace SPME GC/MS malodor removal by aqueous Composition 3 (butanethiol); conditions: 0.5 wt. % activated alkene in Composition 3, pH 7, no catalyst; 2 hours room temperature, 30 minutes 35° C.; numbers less than 1 = reduced malodor
Experimental: as §1, §2, §3, §4, §5

[3] = Headspace SPME GC/MS butanethiol removal by aqueous Composition 5 (activated alkene and catalyst); conditions: for Butanethiol head space concentration normalized to Control, catalyst DBU / Butanethiol head space concentration normalized to Control, catalyst n-hexyl amine / Butanethiol head space concentration normalized to Control, catalyst n-octylamine: Composition 5, 0.5 wt. % activated alkene + catalyst, pH 7; for Butanethiol head space concentration normalized to Control, catalyst DBU: DBU 1:150 molar ratio of catalyst:alkene; for Butanethiol head space concentration normalized to Control, catalyst n-hexyl amine: n-hexyl amine 1:15 molar ratio of catalyst:alkene; for Butanethiol head space concentration normalized to Control, catalyst n-octylamine: n-octylamine 1:15 molar ratio of catalyst:alkene; for Butanethiol head space concentration normalized to Control, No catalyst: Composition 5, 0.5 wt. % activated alkene, pH 7, no catalyst
Experimental: [Worded in the source for another target; this target is reported under the same test.] as §4

[4] = Vapor-phase butanethiol removal, static headspace GC/MS; conditions: 1 μL sample in 10 mL vial, 30 minutes room temperature
Experimental: This example illustrates the malodor removal efficacy of exemplary activated alkenes-catalyst systems in the vapor phase. […] A 1 μL sample of each activated alkene-catalyst combination listed in Table 7 is pipeted into an individual 10 mL silanized headspace vial. The vials are sealed and allowed to equilibrate for at least 12 hours. This procedure is repeated 2 times for each sample. After the equilibration period, 1.5 mL of the target malodor standard vapor is injected into each 10 mL vial. For thiol analysis, the vials containing a sample+malodor standard are held at room temperature for 30 minutes. Then, a 1 mL headspace syringe is then used to inject 250 μL of each sample/malodor into a GC/MS split/splitless inlet. A GC pillow is used for the amine analysis to shorten the run times. Samples are then analyzed using a GC/MS with a DB-5, 20 m, 1 μm film thickness column with an MPS-2 autosampler equipment with static headspace function. Data is analyzed by ion extraction on each total ion current (56 for thiol) and the area is used to calculate the percent reduction from the malodor standard for each sample. Here, the results are reported as % reduction, and higher numbers represent higher reduction in butanethiol concentration.

[5] = benchmark values; cited from earlier work

O=C1C=CC(=O)N1C1CCCCC1 [N-Cyclohexylmaleimide]
Butylamine head space concentration normalized to Control composition, Replicate 1 [1]: 0.0
Butylamine head space concentration normalized to Control composition, Replicate 2 [1]: 0.0
Butanethiol head space concentration normalized to Control composition, Replicate 1 [2]: 0.0
Butanethiol head space concentration normalized to Control composition, Replicate 2 [2]: 0.0

CCOC(=O)/C=C/C(=O)OCC [Diethyl Fumarate]
Butanethiol head space concentration normalized to Control, catalyst DBU [3]: 0.2
Butanethiol head space concentration normalized to Control, catalyst n-hexyl amine [3]: 0
Butanethiol head space concentration normalized to Control, catalyst n-octylamine [3]: 0
Butanethiol head space concentration normalized to Control, No catalyst [3]: 0.3
% reduction in butanethiol concentration, 1% w/w DBU [4]: 63%
% reduction in butanethiol concentration, 1% w/w n-hexylamine [4]: 3.8%
% reduction in butanethiol concentration, 1% w/w n-octylamine [4]: 11.2%
% reduction in butanethiol concentration, No catalyst [4]: 20.7%
Butylamine head space concentration normalized to Control composition, Replicate 1 [1]: 0.1
Butylamine head space concentration normalized to Control composition, Replicate 2 [1]: 0.1
Butanethiol head space concentration normalized to Control composition, Replicate 1 [2]: 0.4
Butanethiol head space concentration normalized to Control composition, Replicate 2 [2]: 0.3

O=C1C=CC(=O)N1c1ccccc1 [n-phenylmaleimide]
% reduction in butanethiol concentration, 1% w/w DBU [4]: 10%
% reduction in butanethiol concentration, 1% w/w n-hexylamine [4]: 1.5%
% reduction in butanethiol concentration, 1% w/w n-octylamine [4]: 2.2%
% reduction in butanethiol concentration, No catalyst [4]: 12.4%

CC(C)=CCCC(C)=CC=O [Citral]
Butylamine head space concentration normalized to Control composition, Replicate 1 [1]: 0.0
Butylamine head space concentration normalized to Control composition, Replicate 2 [1]: 0.0
Butanethiol head space concentration normalized to Control composition, Replicate 1 [2]: 0.1
Butanethiol head space concentration normalized to Control composition, Replicate 2 [2]: 0.1

C=CC(=O)N(C)C [N,N Dimethyl Acrylamide]
Butanethiol head space concentration normalized to Control, catalyst DBU [3]: 0.3
Butanethiol head space concentration normalized to Control, catalyst n-hexyl amine [3]: 0.6
Butanethiol head space concentration normalized to Control, catalyst n-octylamine [3]: 0.7
Butanethiol head space concentration normalized to Control, No catalyst [3]: 0.8
Butylamine head space concentration normalized to Control composition, Replicate 1 [1]: 1.0
Butylamine head space concentration normalized to Control composition, Replicate 2 [1]: 1.0
Butanethiol head space concentration normalized to Control composition, Replicate 1 [2]: 0.8
Butanethiol head space concentration normalized to Control composition, Replicate 2 [2]: 0.8

C/C=C/C(=O)C1C(C)C=CCC1(C)C (stereo not drawn) [Delta Damascone]
% reduction in butanethiol concentration, 1% w/w DBU [4]: 99.6%
% reduction in butanethiol concentration, 1% w/w n-hexylamine [4]: 30.7%
% reduction in butanethiol concentration, 1% w/w n-octylamine [4]: 24.4%
% reduction in butanethiol concentration, No catalyst [4]: 21%

CCc1occc(=O)c1O [Ethyl Maltol]
Butylamine head space concentration normalized to Control composition, Replicate 1 [1]: 0.0
Butylamine head space concentration normalized to Control composition, Replicate 2 [1]: 0.0
Butanethiol head space concentration normalized to Control composition, Replicate 1 [2]: 0.8
Butanethiol head space concentration normalized to Control composition, Replicate 2 [2]: 0.9

OC[C@H]1O[C@@H]2O[C@H]3[C@H](O)[C@@H](O)[C@@H](O[C@H]4[C@H](O)[C@@H](O)[C@@H](O[C@H]5[C@H](O)[C@@H](O)[C@@H](O[C@H]6[C@H](O)[C@@H](O)[C@@H](O[C@H]7[C@H](O)[C@@H](O)[C@@H](O[C@H]8[C@H](O)[C@@H](O)[C@@H](O[C@H]1[C@H](O)[C@H]2O)O[C@@H]8CO)O[C@@H]7CO)O[C@@H]6CO)O[C@@H]5CO)O[C@@H]4CO)O[C@@H]3CO [beta-cyclodextrin]
ambient temperature water solubility (benchmark) [5]: 1.8 g/100 ml

N,N dimethylacrylamide-4- methoxy phenol
% reduction in butanethiol concentration, 1% w/w DBU [4]: 95.2%
% reduction in butanethiol concentration, 1% w/w n-hexylamine [4]: 50%
% reduction in butanethiol concentration, 1% w/w n-octylamine [4]: 22.3%
% reduction in butanethiol concentration, No catalyst [4]: 28.2%

hydroxypropyl modified beta cyclodextrin
ambient temperature water solubility (benchmark) [5]: ≥ 60 g/100 ml

CCOC(=O)/C=C\C(=O)OCC [Diethyl Maleate]
Butanethiol head space concentration normalized to Control, catalyst DBU [3]: 0.5
Butanethiol head space concentration normalized to Control, catalyst n-hexyl amine [3]: 0.1
Butanethiol head space concentration normalized to Control, catalyst n-octylamine [3]: 0.04
Butanethiol head space concentration normalized to Control, No catalyst [3]: 0.7
% reduction in butanethiol concentration, 1% w/w DBU [4]: 44.3%
% reduction in butanethiol concentration, 1% w/w n-hexylamine [4]: 13.3%
% reduction in butanethiol concentration, 1% w/w n-octylamine [4]: 8.1%
% reduction in butanethiol concentration, No catalyst [4]: 24.5%
Butylamine head space concentration normalized to Control composition, Replicate 1 [1]: 0.5
Butylamine head space concentration normalized to Control composition, Replicate 2 [1]: 0.0
Butanethiol head space concentration normalized to Control composition, Replicate 1 [2]: 0.7
Butanethiol head space concentration normalized to Control composition, Replicate 2 [2]: 0.6

C=CC(=O)OCCCCCC [Hexyl Acrylate]
Butanethiol head space concentration normalized to Control, catalyst DBU [3]: 0.2
Butanethiol head space concentration normalized to Control, catalyst n-hexyl amine [3]: 0.02
Butanethiol head space concentration normalized to Control, catalyst n-octylamine [3]: 0
Butanethiol head space concentration normalized to Control, No catalyst [3]: 0.1
% reduction in butanethiol concentration, 1% w/w DBU [4]: 23.1%
% reduction in butanethiol concentration, 1% w/w n-hexylamine [4]: 11.2%
% reduction in butanethiol concentration, 1% w/w n-octylamine [4]: 21%
% reduction in butanethiol concentration, No catalyst [4]: 31.9%
Butylamine head space concentration normalized to Control composition, Replicate 1 [1]: 0.6
Butylamine head space concentration normalized to Control composition, Replicate 2 [1]: 0.5
Butanethiol head space concentration normalized to Control composition, Replicate 1 [2]: 0.1
Butanethiol head space concentration normalized to Control composition, Replicate 2 [2]: 0.1

C/C=C/C(=O)C1=C(C)C=CCC1(C)C [Damascenone]
Butanethiol head space concentration normalized to Control, catalyst DBU [3]: 0.8
Butanethiol head space concentration normalized to Control, catalyst n-hexyl amine [3]: 0.4
Butanethiol head space concentration normalized to Control, catalyst n-octylamine [3]: 0.6
Butanethiol head space concentration normalized to Control, No catalyst [3]: 0.6
Butylamine head space concentration normalized to Control composition, Replicate 1 [1]: 1.0
Butylamine head space concentration normalized to Control composition, Replicate 2 [1]: 1.1
Butanethiol head space concentration normalized to Control composition, Replicate 1 [2]: 0.6
Butanethiol head space concentration normalized to Control composition, Replicate 2 [2]: 0.7
